Test results reported in US4409210A, “Antibiotic compound” (priority 1982, dated 1983).
In brackets after ≈: the same amount, converted by molar mass.

Assays:
Type in all cases: cell-based
[1] = test system: Staphylococcus aureus A20239; test: MIC, serial two-fold dilution method (aerobic); details: Staphylococcus aureus A20239, Mueller-Hinton agar, inoculum 10^4; for MIC: read-out: minimum inhibitory concentration (MIC)
[2] = test system: Staphylococcus aureus A9748; test: MIC, serial two-fold dilution method (aerobic); details: Staphylococcus aureus A9748, Mueller-Hinton agar, inoculum 10^4; for MIC: read-out: minimum inhibitory concentration (MIC)
[3] = test system: Klebsiella pneumoniae D-11; test: MIC, serial two-fold dilution method (aerobic); details: Klebsiella pneumoniae D-11, Mueller-Hinton agar, inoculum 10^4; for MIC: D11, read-out: minimum inhibitory concentration (MIC)
[4] = test system: Propionibacterium acnes A21953; test: MIC, serial two-fold dilution method (anaerobic); details: Propionibacterium acnes A21953, GAM agar medium, inoculum 10^7-10^8; for MIC: Cutibacterium acnes, read-out: minimum inhibitory concentration (MIC)
[5] = test system: Peptostreptococcus intermedius A21881; test: MIC, serial two-fold dilution method (anaerobic); details: Peptostreptococcus intermedius A21881, GAM agar medium, inoculum 10^7-10^8; for MIC: read-out: minimum inhibitory concentration (MIC)
[6] = test system: Bacillus subtilis ATCC 6633; test: MIC, serial two-fold dilution method (aerobic); details: Bacillus subtilis ATCC 6633, Mueller-Hinton agar, inoculum 10^4; for MIC: ATCC6633, read-out: minimum inhibitory concentration (MIC)
[7] = test system: Veillonella parvula A20010; test: MIC, serial two-fold dilution method (anaerobic); details: Veillonella parvula A20010, GAM agar medium, inoculum 10^7-10^8; for MIC: read-out: minimum inhibitory concentration (MIC)
[8] = test system: Clostridium perfringens A22787; test: microbe, parasite or virus in culture; details: for MIC: Clostridium perfringens, A22787, read-out: minimum inhibitory concentration (MIC)
[9] = test system: Clostridium cylindrosporum A9562; test: MIC, serial two-fold dilution method (anaerobic); details: Clostridium cylindrosporum A9562, GAM agar medium, inoculum 10^7-10^8; for MIC: read-out: minimum inhibitory concentration (MIC)
[10] = test system: Staphylococcus aureus BX-1633; test: MIC, serial two-fold dilution method (aerobic); details: Staphylococcus aureus BX-1633, Mueller-Hinton agar, inoculum 10^4; for MIC: BX1633, read-out: minimum inhibitory concentration (MIC)
[11] = test system: Bacteroides fragilis A20926; test: MIC, serial two-fold dilution method (anaerobic); details: Bacteroides fragilis A20926, GAM agar medium, inoculum 10^7-10^8; for MIC: read-out: minimum inhibitory concentration (MIC)
[12] = test system: Staphylococcus aureus A20701; test: MIC, serial two-fold dilution method (aerobic); details: Staphylococcus aureus A20701, Mueller-Hinton agar, inoculum 10^4; for MIC: read-out: minimum inhibitory concentration (MIC)
[13] = test system: Fusobacterium varium ATCC 8501; test: MIC, serial two-fold dilution method (anaerobic); details: Fusobacterium varium ATCC 8501, GAM agar medium, inoculum 10^7-10^8; for MIC: ATCC8501, read-out: minimum inhibitory concentration (MIC)
[14] = test system: Staphylococcus aureus A9856; test: MIC, serial two-fold dilution method (aerobic); details: Staphylococcus aureus A9856, Mueller-Hinton agar, inoculum 10^4; for MIC: read-out: minimum inhibitory concentration (MIC)
[15] = test system: Propionibacterium acnes A22650; test: MIC, serial two-fold dilution method (anaerobic); details: Propionibacterium acnes A22650, GAM agar medium, inoculum 10^7-10^8; for MIC: Cutibacterium acnes, read-out: minimum inhibitory concentration (MIC)
[16] = test system: Staphylococcus aureus A20394; test: MIC, serial two-fold dilution method (aerobic); details: Staphylococcus aureus A20394, Mueller-Hinton agar, inoculum 10^4; for MIC: read-out: minimum inhibitory concentration (MIC)
[17] = test system: Sarcina lutea PCI-1001; test: MIC, serial two-fold dilution method (aerobic); details: Sarcina lutea PCI-1001, Mueller-Hinton agar, inoculum 10^4; for MIC: Micrococcus luteus, PCI1001, read-out: minimum inhibitory concentration (MIC)
[18] = test system: Bacteroides ovatus A22400; test: MIC, serial two-fold dilution method (anaerobic); details: Bacteroides ovatus A22400, GAM agar medium, inoculum 10^7-10^8; for MIC: read-out: minimum inhibitory concentration (MIC)
[19] = test system: Proteus mirabilis A9554; test: MIC, serial two-fold dilution method (aerobic); details: Proteus mirabilis A9554, Mueller-Hinton agar, inoculum 10^4; for MIC: read-out: minimum inhibitory concentration (MIC)
[20] = test system: Staphylococcus aureus A9601; test: MIC, serial two-fold dilution method (aerobic); details: Staphylococcus aureus A9601, Mueller-Hinton agar, inoculum 10^4; for MIC: read-out: minimum inhibitory concentration (MIC)
[21] = test system: Staphylococcus aureus A20610; test: MIC, serial two-fold dilution method (aerobic); details: Staphylococcus aureus A20610, Mueller-Hinton agar, inoculum 10^4; for MIC: read-out: minimum inhibitory concentration (MIC)
[22] = test system: Propionibacterium acnes A21933; test: MIC, serial two-fold dilution method (anaerobic); details: Propionibacterium acnes A21933, GAM agar medium, inoculum 10^7-10^8; for MIC: Cutibacterium acnes, read-out: minimum inhibitory concentration (MIC)
[23] = test system: Clostridium perfringens A9635; test: microbe, parasite or virus in culture; details: for MIC: Clostridium perfringens, A9635, read-out: minimum inhibitory concentration (MIC)
[24] = test system: Bacteroides fragilis CUH-9; test: MIC, serial two-fold dilution method (anaerobic); details: Bacteroides fragilis CUH-9, GAM agar medium, inoculum 10^7-10^8; for MIC: CUH9, read-out: minimum inhibitory concentration (MIC)
[25] = test system: Pseudomonas aeruginosa D-113; test: MIC, serial two-fold dilution method (aerobic); details: Pseudomonas aeruginosa D-113, Mueller-Hinton agar, inoculum 10^4; for MIC: D113, read-out: minimum inhibitory concentration (MIC)
[26] = test system: Peptostreptococcus anaerobius A21905; test: MIC, serial two-fold dilution method (anaerobic); details: Peptostreptococcus anaerobius A21905, GAM agar medium, inoculum 10^7-10^8; for MIC: read-out: minimum inhibitory concentration (MIC)
[27] = test system: Veillonella alcalescens A21914-1; test: MIC, serial two-fold dilution method (anaerobic); details: Veillonella alcalescens A21914-1, GAM agar medium, inoculum 10^7-10^8; for MIC: Veillonella parvula, A219141, read-out: minimum inhibitory concentration (MIC)
[28] = test system: Staphylococcus aureus #193; test: MIC, serial two-fold dilution method (aerobic); details: Staphylococcus aureus #193, Mueller-Hinton agar, inoculum 10^4; for MIC: read-out: minimum inhibitory concentration (MIC)
[29] = test system: Bacteroides fragilis A21900; test: MIC, serial two-fold dilution method (anaerobic); details: Bacteroides fragilis A21900, GAM agar medium, inoculum 10^7-10^8; for MIC: read-out: minimum inhibitory concentration (MIC)

## O=C(N[C@H](CO)[C@H](O)c1ccc([N+](=O)[O-])cc1)C(Cl)Cl [Chloramphenicol]
[1]
  MIC: 6.3 µg/mL (≈ 19.5 µM)
[2]
  MIC: 6.3 µg/mL (≈ 19.5 µM)
[3]
  MIC: 1.6 µg/mL (≈ 4.95 µM)
[4]
  MIC: 1.6 µg/mL (≈ 4.95 µM)
[5]
  MIC: 3.1 µg/mL (≈ 9.59 µM)
[6]
  MIC: 3.1 µg/mL (≈ 9.59 µM)
[7]
  MIC: 3.1 µg/mL (≈ 9.59 µM)
[8]
  MIC: 6.3 µg/mL (≈ 19.5 µM)
[9]
  MIC: 6.3 µg/mL (≈ 19.5 µM)
[10]
  MIC: 6.3 µg/mL (≈ 19.5 µM)
[11]
  MIC: 3.1 µg/mL (≈ 9.59 µM)
[12]
  MIC: 50 µg/mL (≈ 155 µM)
[13]
  MIC: 6.3 µg/mL (≈ 19.5 µM)
[14]
  MIC: 3.1 µg/mL (≈ 9.59 µM)
[15]
  MIC: 0.4 µg/mL (≈ 1.24 µM)
[16]
  MIC: 50 µg/mL (≈ 155 µM)
[17]
  MIC: 1.6 µg/mL (≈ 4.95 µM)
[18]
  MIC: 1.6 µg/mL (≈ 4.95 µM)
[19]
  MIC: 12.5 µg/mL (≈ 38.7 µM)
[20]
  MIC: 6.3 µg/mL (≈ 19.5 µM)
[21]
  MIC: 50 µg/mL (≈ 155 µM)
[22]
  MIC: 3.1 µg/mL (≈ 9.59 µM)
[23]
  MIC: 3.1 µg/mL (≈ 9.59 µM)
[24]
  MIC: 1.6 µg/mL (≈ 4.95 µM)
[25]
  MIC: > 100 µg/mL
[26]
  MIC: 1.6 µg/mL (≈ 4.95 µM)
[27]
  MIC: 1.6 µg/mL (≈ 4.95 µM)
[28]
  MIC: 3.1 µg/mL (≈ 9.59 µM)
[29]
  MIC: 3.1 µg/mL (≈ 9.59 µM)

## CC[C@H]1OC(=O)[C@H](C)[C@@H](O[C@H]2C[C@@](C)(OC)[C@@H](O)[C@H](C)O2)[C@H](C)[C@@H](O[C@@H]2O[C@H](C)C[C@H](N(C)C)[C@H]2O)[C@](C)(O)C[C@@H](C)C(=O)[C@H](C)[C@@H](O)[C@]1(C)O [Erythromycin]
[1]
  MIC: 12.5 µg/mL (≈ 17 µM)
[2]
  MIC: 0.4 µg/mL (≈ 0.545 µM)
[3]
  MIC: 100 µg/mL (≈ 136 µM)
[4]
  MIC: 0.8 µg/mL (≈ 1.09 µM)
[5]
  MIC: 0.4 µg/mL (≈ 0.545 µM)
[6]
  MIC: < 0.05 µg/mL
[7]
  MIC: 3.1 µg/mL (≈ 4.22 µM)
[8]
  MIC: > 100 µg/mL
[9]
  MIC: 3.1 µg/mL (≈ 4.22 µM)
[10]
  MIC: 0.2 µg/mL (≈ 0.273 µM)
[11]
  MIC: < 0.05 µg/mL
[12]
  MIC: > 100 µg/mL
[13]
  MIC: 1.6 µg/mL (≈ 2.18 µM)
[14]
  MIC: 0.2 µg/mL (≈ 0.273 µM)
[15]
  MIC: < 0.0063 µg/mL
[16]
  MIC: 0.2 µg/mL (≈ 0.273 µM)
[17]
  MIC: < 0.05 µg/mL
[18]
  MIC: > 100 µg/mL
[19]
  MIC: > 100 µg/mL
[20]
  MIC: 0.4 µg/mL (≈ 0.545 µM)
[21]
  MIC: > 100 µg/mL
[22]
  MIC: 1.6 µg/mL (≈ 2.18 µM)
[23]
  MIC: 0.8 µg/mL (≈ 1.09 µM)
[24]
  MIC: 6.3 µg/mL (≈ 8.58 µM)
[25]
  MIC: 100 µg/mL (≈ 136 µM)
[26]
  MIC: 0.8 µg/mL (≈ 1.09 µM)
[27]
  MIC: 0.2 µg/mL (≈ 0.273 µM)
[28]
  MIC: 0.4 µg/mL (≈ 0.545 µM)
[29]
  MIC: 0.4 µg/mL (≈ 0.545 µM)

## CC1(C)S[C@@H]2[C@H](NC(=O)[C@H](N)c3ccccc3)C(=O)N2[C@H]1C(=O)O [Ampicillin]
[1]
  MIC: 1.6 µg/mL (≈ 4.58 µM)
[2]
  MIC: 25 µg/mL (≈ 71.5 µM)
[3]
  MIC: 0.8 µg/mL (≈ 2.29 µM)
[4]
  MIC: < 0.0063 µg/mL
[5]
  MIC: 0.1 µg/mL (≈ 0.286 µM)
[6]
  MIC: 0.013 µg/mL (≈ 0.0372 µM)
[7]
  MIC: 0.4 µg/mL (≈ 1.14 µM)
[8]
  MIC: 0.1 µg/mL (≈ 0.286 µM)
[9]
  MIC: 0.8 µg/mL (≈ 2.29 µM)
[10]
  MIC: 3.1 µg/mL (≈ 8.87 µM)
[11]
  MIC: 0.2 µg/mL (≈ 0.572 µM)
[12]
  MIC: 25 µg/mL (≈ 71.5 µM)
[13]
  MIC: 12.5 µg/mL (≈ 35.8 µM)
[14]
  MIC: 0.05 µg/mL (≈ 0.143 µM)
[15]
  MIC: 0.05 µg/mL (≈ 0.143 µM)
[16]
  MIC: 3.1 µg/mL (≈ 8.87 µM)
[17]
  MIC: < 0.05 µg/mL
[18]
  MIC: 25 µg/mL (≈ 71.5 µM)
[19]
  MIC: 0.8 µg/mL (≈ 2.29 µM)
[20]
  MIC: 0.4 µg/mL (≈ 1.14 µM)
[21]
  MIC: 12.5 µg/mL (≈ 35.8 µM)
[22]
  MIC: 0.2 µg/mL (≈ 0.572 µM)
[23]
  MIC: 0.2 µg/mL (≈ 0.572 µM)
[24]
  MIC: 3.1 µg/mL (≈ 8.87 µM)
[25]
  MIC: > 100 µg/mL
[26]
  MIC: 0.1 µg/mL (≈ 0.286 µM)
[27]
  MIC: 0.025 µg/mL (≈ 0.0715 µM)
[28]
  MIC: 1.6 µg/mL (≈ 4.58 µM)
[29]
  MIC: 0.2 µg/mL (≈ 0.572 µM)

## Amphomycin
[1]
  minimum inhibitory concentration (MIC): 6.3 µg/mL
[2]
  minimum inhibitory concentration (MIC): 6.3 µg/mL
[3]
  minimum inhibitory concentration (MIC): > 100 µg/mL
[4]
  minimum inhibitory concentration (MIC): 6.3 µg/mL
[5]
  minimum inhibitory concentration (MIC): 6.3 µg/mL
[6]
  minimum inhibitory concentration (MIC): 1.6 µg/mL
[7]
  minimum inhibitory concentration (MIC): 6.3 µg/mL
[8]; Clostridium perfringens A22787, GAM agar medium, inoculum 10^7-10^8
  minimum inhibitory concentration (MIC): 12.5 µg/mL
[9]
  minimum inhibitory concentration (MIC): 25 µg/mL
[10]
  minimum inhibitory concentration (MIC): 3.1 µg/mL
[11]
  minimum inhibitory concentration (MIC): 50 µg/mL
[12]
  minimum inhibitory concentration (MIC): 6.3 µg/mL
[13]
  minimum inhibitory concentration (MIC): 25 µg/mL
[14]
  minimum inhibitory concentration (MIC): 3.1 µg/mL
[15]
  minimum inhibitory concentration (MIC): 6.3 µg/mL
[16]
  minimum inhibitory concentration (MIC): 3.1 µg/mL
[17]
  minimum inhibitory concentration (MIC): 0.8 µg/mL
[18]
  minimum inhibitory concentration (MIC): > 100 µg/mL
[19]
  minimum inhibitory concentration (MIC): > 100 µg/mL
[20]
  minimum inhibitory concentration (MIC): 3.1 µg/mL
[21]
  minimum inhibitory concentration (MIC): 3.1 µg/mL
[22]
  minimum inhibitory concentration (MIC): 3.1 µg/mL
[23]; Clostridium perfringens A9635, GAM agar medium, inoculum 10^7-10^8
  minimum inhibitory concentration (MIC): 6.3 µg/mL
[24]
  minimum inhibitory concentration (MIC): > 100 µg/mL
[25]
  minimum inhibitory concentration (MIC): > 100 µg/mL
[26]
  minimum inhibitory concentration (MIC): 3.1 µg/mL
[27]
  minimum inhibitory concentration (MIC): 25 µg/mL
[28]
  minimum inhibitory concentration (MIC): 3.1 µg/mL
[29]
  minimum inhibitory concentration (MIC): 25 µg/mL
